Test results from the supplement of paper PMC10307832.

Key:
Assay in all cases: relative viability (nuclei count vs DMSO), 5 days (fraction); higher = more cells survive
[1] = compound: C1CNCCC1C2=CC(=NN2)C3=CC=NC=C3 + Cc1nc(Nc2ncc(C(=O)Nc3c(C)cccc3Cl)s2)cc(N2CCN(CCO)CC2)n1 [Dasatinib] (partner 0.075 µM)
Summary of the method: (§1)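 Cells from lung cancer lines were seeded into 1536-well plates and, one day later, dosed by pin tool. Treatments were either a single drug or a fixed dose of an anchor drug with five library-drug doses (not always all listed) in √10 steps. After 5 days, nuclei were stained in a one-step fixation (final 0.05% Triton X-100, 1% formaldehyde, 1 ug/ml Hoechst) and counted on 4× images, and relative viability is the treated-to-vehicle nuclei ratio, as the median of duplicate plates.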

[2] = compound: C[C@@H](N)c1ccc(C(=O)Nc2ccnc3[nH]ccc23)cc1 + CC(=O)c1c(C)c2cnc(Nc3ccc(N4CCNCC4)cn3)nc2n(C2CCCC2)c1=O [Palbociclib] (partner 0.5 µM)
Summary of the method: as §1

[3] = compound: C[C@@H](N)c1ccc(C(=O)Nc2ccnc3[nH]ccc23)cc1 + CC1(C)CCC(c2ccc(Cl)cc2)=C(CN2CCN(c3ccc(C(=O)NS(=O)(=O)c4ccc(N[C@H](CCN5CCOCC5)CSc5ccccc5)c(S(=O)(=O)C(F)(F)F)c4)cc3)CC2)C1 [Navitoclax] (partner 0.5 µM)
Summary of the method: as §1

[4] = compound: O[C@H]1CC[C@H](Nc2ncc3nc(Nc4c(F)cc(F)cc4F)n([C@H]4CCOC4)c3n2)CC1 [Tanzisertib] + NC(=O)Nc1cc(-c2cccc(F)c2)sc1C(=O)N[C@H]1CCCNC1 [AZD7762] (partner 0.2 µM)
Summary of the method: as §1

Cell Line: HCC-827
- relative viability ([1]; first compound 0.08 µM): 0.366
- relative viability ([1]; first compound 0.8 µM): 0.228
- relative viability ([1]; first compound 2.53 µM): 0.302
- relative viability ([1]; first compound 8 µM): 0.308
- relative viability ([2]; first compound 0.1265 µM): 0.442
- relative viability ([2]; first compound 0.4 µM): 0.478
- relative viability ([2]; first compound 1.265 µM): 0.476
- relative viability ([2]; first compound 4 µM): 0.433
- relative viability ([3]; first compound 0.04 µM): 0.872
- relative viability ([3]; first compound 0.1265 µM): 0.993
- relative viability ([3]; first compound 0.4 µM): 0.971
- relative viability ([3]; first compound 1.265 µM): 1.05
- relative viability ([3]; first compound 4 µM): 0.843
- relative viability ([4]; first compound 0.08 µM): 0.206
- relative viability ([4]; first compound 0.253 µM): 0.227
- relative viability ([4]; first compound 0.8 µM): 0.19
- relative viability ([4]; first compound 2.53 µM): 0.164
- relative viability ([4]; first compound 8 µM): 0.147

Cell Line: HOP-62
- relative viability ([1]; first compound 0.08 µM): 0.691
- relative viability ([1]; first compound 0.8 µM): 0.635
- relative viability ([1]; first compound 2.53 µM): 0.703
- relative viability ([1]; first compound 8 µM): 0.648
- relative viability ([2]; first compound 0.04 µM): 0.454
- relative viability ([2]; first compound 0.1265 µM): 0.463
- relative viability ([2]; first compound 0.4 µM): 0.449
- relative viability ([2]; first compound 1.265 µM): 0.411
- relative viability ([2]; first compound 4 µM): 0.397
- relative viability ([3]; first compound 0.04 µM): 1.08
- relative viability ([3]; first compound 0.1265 µM): 0.959
- relative viability ([3]; first compound 0.4 µM): 1.06
- relative viability ([3]; first compound 4 µM): 0.85
- relative viability ([4]; first compound 0.08 µM): 0.483
- relative viability ([4]; first compound 0.253 µM): 0.503
- relative viability ([4]; first compound 0.8 µM): 0.708
- relative viability ([4]; first compound 2.53 µM): 0.625
- relative viability ([4]; first compound 8 µM): 0.47

Cell Line: IA-LM
- relative viability ([3]; first compound 0.04 µM): 0.799
- relative viability ([3]; first compound 0.1265 µM): 0.93
- relative viability ([3]; first compound 0.4 µM): 0.929
- relative viability ([3]; first compound 1.265 µM): 1.03
- relative viability ([3]; first compound 4 µM): 0.989

Cell Line: LC-2-ad
- relative viability ([1]; first compound 0.8 µM): 0.647
- relative viability ([1]; first compound 2.53 µM): 0.761
- relative viability ([1]; first compound 8 µM): 0.739
- relative viability ([2]; first compound 0.04 µM): 0.472
- relative viability ([2]; first compound 0.1265 µM): 0.53
- relative viability ([2]; first compound 0.4 µM): 0.458
- relative viability ([2]; first compound 1.265 µM): 0.413
- relative viability ([2]; first compound 4 µM): 0.411
- relative viability ([3]; first compound 0.04 µM): 0.398
- relative viability ([3]; first compound 0.1265 µM): 0.566
- relative viability ([3]; first compound 0.4 µM): 0.585
- relative viability ([3]; first compound 1.265 µM): 0.346
- relative viability ([3]; first compound 4 µM): 0.262
- relative viability ([4]; first compound 0.08 µM): 0.839
- relative viability ([4]; first compound 0.253 µM): 0.898
- relative viability ([4]; first compound 0.8 µM): 0.867
- relative viability ([4]; first compound 2.53 µM): 0.833
- relative viability ([4]; first compound 8 µM): 0.676

Cell Line: LCLC-97TM1
- relative viability ([1]; first compound 0.08 µM): 0.875
- relative viability ([1]; first compound 0.8 µM): 0.784
- relative viability ([1]; first compound 2.53 µM): 0.923
- relative viability ([1]; first compound 8 µM): 0.758
- relative viability ([2]; first compound 0.04 µM): 0.276
- relative viability ([2]; first compound 0.1265 µM): 0.217
- relative viability ([2]; first compound 0.4 µM): 0.341
- relative viability ([2]; first compound 1.265 µM): 0.257
- relative viability ([2]; first compound 4 µM): 0.309
- relative viability ([3]; first compound 0.04 µM): 0.405
- relative viability ([3]; first compound 0.1265 µM): 0.507
- relative viability ([3]; first compound 0.4 µM): 0.44
- relative viability ([3]; first compound 1.265 µM): 0.786
- relative viability ([3]; first compound 4 µM): 0.836
- relative viability ([4]; first compound 0.08 µM): 0.302
- relative viability ([4]; first compound 0.253 µM): 0.334
- relative viability ([4]; first compound 0.8 µM): 0.207
- relative viability ([4]; first compound 2.53 µM): 0.264
- relative viability ([4]; first compound 8 µM): 0.151

Cell Line: LCLC-103H
- relative viability ([1]; first compound 0.08 µM): 0.462
- relative viability ([1]; first compound 0.8 µM): 0.505
- relative viability ([1]; first compound 2.53 µM): 0.396
- relative viability ([1]; first compound 8 µM): 0.537
- relative viability ([2]; first compound 0.04 µM): 0.473
- relative viability ([2]; first compound 0.1265 µM): 0.478
- relative viability ([2]; first compound 0.4 µM): 0.433
- relative viability ([2]; first compound 1.265 µM): 0.423
- relative viability ([2]; first compound 4 µM): 0.388
- relative viability ([4]; first compound 0.08 µM): 0.877
- relative viability ([4]; first compound 0.253 µM): 0.735
- relative viability ([4]; first compound 0.8 µM): 0.769
- relative viability ([4]; first compound 2.53 µM): 0.8
- relative viability ([4]; first compound 8 µM): 0.754

Cell Line: NCI-H358
- relative viability ([1]; first compound 0.08 µM): 0.118
- relative viability ([1]; first compound 0.8 µM): 0.16
- relative viability ([1]; first compound 2.53 µM): 0.149
- relative viability ([1]; first compound 8 µM): 0.143
- relative viability ([2]; first compound 0.04 µM): 0.145
- relative viability ([2]; first compound 0.1265 µM): 0.134
- relative viability ([2]; first compound 0.4 µM): 0.141
- relative viability ([2]; first compound 1.265 µM): 0.133
- relative viability ([2]; first compound 4 µM): 0.145
- relative viability ([4]; first compound 0.08 µM): 0.468
- relative viability ([4]; first compound 0.253 µM): 0.494
- relative viability ([4]; first compound 0.8 µM): 0.695
- relative viability ([4]; first compound 2.53 µM): 0.453
- relative viability ([4]; first compound 8 µM): 0.387

Cell Line: NCI-H520
- relative viability ([1]; first compound 0.08 µM): 0.17
- relative viability ([1]; first compound 0.8 µM): 0.163
- relative viability ([1]; first compound 2.53 µM): 0.187
- relative viability ([1]; first compound 8 µM): 0.206
- relative viability ([2]; first compound 0.04 µM): 0.218
- relative viability ([2]; first compound 0.1265 µM): 0.231
- relative viability ([2]; first compound 0.4 µM): 0.263
- relative viability ([2]; first compound 1.265 µM): 0.254
- relative viability ([2]; first compound 4 µM): 0.225
- relative viability ([3]; first compound 0.04 µM): 1.03
- relative viability ([3]; first compound 0.1265 µM): 1.01
- relative viability ([3]; first compound 0.4 µM): 1.05
- relative viability ([3]; first compound 1.265 µM): 1.14
- relative viability ([3]; first compound 4 µM): 1.14

Cell Line: NCI-H522
- relative viability ([1]; first compound 0.08 µM): 0.841
- relative viability ([1]; first compound 0.8 µM): 0.869
- relative viability ([1]; first compound 2.53 µM): 0.896
- relative viability ([1]; first compound 8 µM): 0.967
- relative viability ([2]; first compound 0.04 µM): 1.03
- relative viability ([2]; first compound 0.1265 µM): 0.986
- relative viability ([2]; first compound 0.4 µM): 1.1
- relative viability ([2]; first compound 1.265 µM): 1.02
- relative viability ([2]; first compound 4 µM): 0.874
- relative viability ([4]; first compound 0.08 µM): 1.1
- relative viability ([4]; first compound 0.253 µM): 0.891
- relative viability ([4]; first compound 0.8 µM): 0.839
- relative viability ([4]; first compound 2.53 µM): 0.955
- relative viability ([4]; first compound 8 µM): 0.886

Cell Line: NCI-H596
- relative viability ([1]; first compound 0.08 µM): 0.602
- relative viability ([1]; first compound 0.8 µM): 0.562
- relative viability ([1]; first compound 2.53 µM): 0.654
- relative viability ([1]; first compound 8 µM): 0.664
- relative viability ([3]; first compound 0.04 µM): 1.01
- relative viability ([3]; first compound 0.1265 µM): 1.2
- relative viability ([3]; first compound 0.4 µM): 0.96
- relative viability ([3]; first compound 1.265 µM): 1.06
- relative viability ([3]; first compound 4 µM): 0.955
- relative viability ([4]; first compound 0.08 µM): 1.04
- relative viability ([4]; first compound 0.253 µM): 1.04
- relative viability ([4]; first compound 0.8 µM): 1.12
- relative viability ([4]; first compound 2.53 µM): 0.995
- relative viability ([4]; first compound 8 µM): 1.04

Cell Line: NCI-H650
- relative viability ([1]; first compound 0.08 µM): 0.468
- relative viability ([1]; first compound 0.8 µM): 0.45
- relative viability ([1]; first compound 2.53 µM): 0.5
- relative viability ([1]; first compound 8 µM): 0.428
- relative viability ([2]; first compound 0.1265 µM): 0.341
- relative viability ([2]; first compound 0.4 µM): 0.311
- relative viability ([2]; first compound 4 µM): 0.327
- relative viability ([4]; first compound 0.08 µM): 1.03
- relative viability ([4]; first compound 0.253 µM): 1.32
- relative viability ([4]; first compound 0.8 µM): 1.01
- relative viability ([4]; first compound 2.53 µM): 1.3
- relative viability ([4]; first compound 8 µM): 0.489
